Source: publication PMC10730845, “Endoxifen downregulates AKT phosphorylation through protein kinase C beta 1 inhibition in ERα+ breast cancer” (NPJ Breast Cancer, 2023)
Where two headings read alike, the source gives them in different places.

What was measured:
MCF7AC1 cells [1] = test: IncuCyte Annexin V apoptosis assay, MCF7AC1; assay type: cell-based, human; conditions: CSS medium, 48 h
Procedure: MCF7AC1 and T47D-LTED cells were plated at a density of 2000 cells per well in CSS medium for 24 h. Cells were then co-treated for 48 h with vehicle or drug, IncuCyte Annexin V green reagent (#4642, 1:300), an early-stage apoptosis marker, and IncuCyte NucLight rapid red reagent (#4717, 1:500), a dye that stains all cell nuclei red, in CSS medium. MCF7AC1^caAKT cells were plated at a cell density of 2000 cells per well in CSS medium in the absence or presence of cumate for 48 h and then co-treated with vehicle or drug, Annexin V green and NucLight rapid red reagents in the absence or presence of cumate for an additional 48 h in CSS medium.

PKC nu (PKCn/PRKD3) = PKC nu (PKCn/PRKD3) (Homo sapiens, UniProt O94806); test: In vitro kinase assay, PKC nu; assay type: biochemical; conditions: 10 μM ATP
Description: (§1) Supplementary Table 4. In vitro kinase assay showing the IC 50 concentration of ENDX and
(§2) of the 12 PKC family members.
(§3) (1 picture or pasted object on this page, not shown here)

PKC alpha (PKCa) = PKC alpha (PKCa) (Homo sapiens, UniProt P17252); test: In vitro kinase assay, PKC alpha; assay type: biochemical; conditions: 10 μM ATP
Description: as §1, §2, §3

PKCβ1 in MCF7AC1 cells = test: Immunoblot of PKCβ1 and pPKCβ1^Ser661, MCF7AC1; assay type: cell-based, human; conditions: serum starved; for Effect on PMA-stimulated PKCβ1^Ser661 phosphorylation: 2 h pretreatment, 200 nM PMA 20 min
Procedure: (§4) The ENDX hydrochloride utilized in this study was synthesized in collaboration between Mayo Clinic and National Institute of Health (NIH). Estrogen deprived MCF7AC1 were treated with vehicle control or ENDX (National Cancer Institute) for 24 h. For the phorbol 12-myristate 13-acetate (PMA) (LC Laboratories, #P-1680) experiments, MCF7AC1 cells were maintained in serum-free medium for 24 h prior to pretreatment with vehicle or ENDX for 2 h followed by treatment with 20 or 200 nM PMA for 20 min. For the insulin (Sigma-Aldrich, #I0516) experiments, MCF7AC1 and T47D cells were maintained in serum-free medium for 24 h prior to pretreatment with vehicle control or drugs for 2 h followed by treatment with 100 nM insulin for 1 h.
(§5) Protein lysates were prepared using the RIPA lysis buffer system (ChemCruz #sc-24948) and quantified using the DC^TM Protein Assay reagents (Bio-Rad #5000112). Equal amounts of protein lysates were separated on 10% Criterion gels (Bio-Rad #3450112), transferred to PVDF membranes (Bio-Rad #1620177), blocked in TBST-5% milk and probed with primary antibodies listed in Supplementary Table 5, at the indicated dilutions. Membranes were incubated with HRP-conjugated anti-rabbit (CST #7074) or anti-mouse (CST #7076) secondary antibodies and visualized using chemiluminescent West Pico (Thermo Scientific #34580) or West Femto (Thermo Scientific #34096) reagents and a Li-Cor Odyssey® XF imager. Protein lysates from the MCF7AC1 xenograft model were obtained from a previous study. Quantitation of the protein bands signal intensity was performed using the NIH ImageJ image analysis software (https://imagej.nih.gov/ij///index.html). For the quantitation of the phospho protein levels, we first normalized total protein levels to β-actin loading control and used these values to normalize the phospho protein levels and compared change in protein expression levels relative to vehicle control normalized to 1.0. For the quantitation of total protein levels, we normalized the total protein levels to β-actin and compared change in expression levels relative to vehicle control normalized to 1.0. All blots were processed in parallel and derived from the same experiments. Unprocessed immunoblot images are provided in Supplementary Figs. 9–13.

MCF7AC1 cells [2] = test: Crystal violet cell viability / proliferation assay, MCF7AC1; assay type: cell-based, human; conditions: CSS medium, 48 h, 0 to 10 µM tested
Procedure: Fig. 1 Z-endoxifen (ENDX) effects on cell viability and apoptosis in estrogen deprived ERα+ /HER2- MCF7AC1 cells. a Cells grown in CSS medium were treated with vehicle control or the indicated ENDX concentrations for […]. Cell viability was assessed by the crystal violet assay. b Cells were co-treated with vehicle control or the indicated ENDX concentrations, IncuCyte Annexin V green and NucLight red reagents in CSS medium for 48 h. […] Data represents the mean of six wells per treatment performed as biological duplicates ± s.d. **p ≤ 0.01; ***p ≤ 0.001; ****p ≤ 0.0001 by one-way ANOVA.
Cells were plated at a density of 2000 cells per well. Cell viability of (i) vehicle or drug treated MCF7AC1 and T47D-LTED cells in CSS medium, (ii) siNT or siPKCβ-transfected MCF7AC1 cells in CSS medium and (iii) T47D cells in FBS versus CSS medium were analyzed by crystal violet staining assay after 6 days of treatment or siRNA transfection as previously described. Cell viability was calculated as the average absorbance of the drug treated cells divided by the average absorbance of the vehicle treated cells × 100.

[3] = tested on: AKT phosphorylation in T47D cells; test: Immunoblot of AKT phosphorylation, serum starved T47D; assay type: cell-based, human; conditions: not at 0.01 or 0.10 µM
Procedure: as §4
as §5, with “Protein lysates from the MCF7AC1 xenograft model were obtained from a previous study.” left out, “All blots were processed in parallel and derived from the same experiments. Unprocessed immunoblot images are provided in Supplementary Figs. 9–13.” left out

[4] = phase I, cited from earlier work; for Cmax: read-out: Peak serum concentration (Cmax)

PKC nu (PKCn/PRKD3), sequence (O94806 whole entry): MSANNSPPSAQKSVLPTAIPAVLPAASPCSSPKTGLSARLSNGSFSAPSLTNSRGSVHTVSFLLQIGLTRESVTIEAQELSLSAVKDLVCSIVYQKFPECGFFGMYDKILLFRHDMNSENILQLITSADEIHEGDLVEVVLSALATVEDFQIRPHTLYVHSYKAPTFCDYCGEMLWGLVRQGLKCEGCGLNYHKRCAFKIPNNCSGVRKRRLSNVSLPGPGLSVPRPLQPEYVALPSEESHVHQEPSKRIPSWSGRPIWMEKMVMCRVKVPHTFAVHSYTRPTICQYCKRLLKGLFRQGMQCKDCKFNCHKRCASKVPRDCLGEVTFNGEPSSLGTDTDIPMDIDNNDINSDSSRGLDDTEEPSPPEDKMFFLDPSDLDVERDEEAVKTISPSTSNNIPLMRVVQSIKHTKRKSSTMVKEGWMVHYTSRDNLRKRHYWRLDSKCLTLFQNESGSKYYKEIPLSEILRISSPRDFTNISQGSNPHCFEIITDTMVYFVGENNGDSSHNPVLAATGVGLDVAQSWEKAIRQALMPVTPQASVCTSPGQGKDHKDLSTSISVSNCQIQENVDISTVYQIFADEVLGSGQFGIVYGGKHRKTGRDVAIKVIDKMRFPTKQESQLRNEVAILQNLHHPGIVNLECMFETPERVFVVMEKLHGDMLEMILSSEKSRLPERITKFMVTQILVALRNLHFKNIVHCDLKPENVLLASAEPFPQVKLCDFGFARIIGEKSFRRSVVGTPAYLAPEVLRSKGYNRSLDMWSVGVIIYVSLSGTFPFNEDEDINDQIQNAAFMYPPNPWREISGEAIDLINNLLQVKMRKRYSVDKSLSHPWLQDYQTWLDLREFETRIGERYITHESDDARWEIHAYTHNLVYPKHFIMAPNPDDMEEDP

Question: Which results are given for `CC/C(=C(\c1ccc(O)cc1)c1ccc(OCCNC)cc1)c1ccccc1` [ENDX, Z-endoxifen]?
Answer: Concentrations that induced apoptosis (MCF7AC1 cells [1]; 0 to 10 µM tested): ≥ 2.5 µM; Effect on apoptosis (MCF7AC1 cells [1]; ENDX 5 µM, TAM 0.1 µM, ICI 0.1 µM): induced apoptosis; IC50 (PKC nu (PKCn/PRKD3)): 26.4 µM; IC50 (PKC alpha (PKCa)): > 50 µM; Effect on PKCβ1^Ser661 phosphorylation in insulin treated cells (PKCβ1 in MCF7AC1 cells; 100 nM insulin 1 h): no effects on PKCβ1^Ser661 phosphorylation; Effect on PKCβ1 total protein in insulin treated cells (PKCβ1 in MCF7AC1 cells; 100 nM insulin 1 h, ENDX 0.01, 0.1, 5 µM, TAM 0.1 µM, ICI 0.1 µM): reduced PKCβ1 total protein levels; Effect on PMA-stimulated PKCβ1^Ser661 phosphorylation (PKCβ1 in MCF7AC1 cells; 5 μM): minimal; Effect on PMA-stimulated PKCβ1^Ser661 phosphorylation (PKCβ1 in MCF7AC1 cells; 0.01, 0.1 μM): no; Concentration robustly reducing PKCβ1 total protein levels (PKCβ1 in MCF7AC1 cells; PMA-stimulated, 0.01, 0.1 and 5 μM tested): 5 µM; Concentrations that significantly reduced cell viability (MCF7AC1 cells [2]): ≥ 2.5 µM; Concentration blocking insulin-stimulated AKT^Ser473 phosphorylation [3]: 5 µM; Peak serum concentration (Cmax) ([4]; Day 28, 80 mg/day): 913 ± 142 ng/mL; Cmax ([4]; Day 28, 80 mg/day): 2.44 ± 0.38 µM; Peak serum concentration (Cmax) ([4]; Day 28, 200 mg/day): 1641 ± 830 ng/mL; Cmax ([4]; Day 28, 200 mg/day): 4.39 ± 2.22 µM
